Data taken from patent US10669255B2, “Pyrrole derivatives” (HUA MEDICINE (SHANGHAI) LTD., priority 2016, dated 2020).
pIC50: −log10 of the molar value.

What follows are molecules tested against T1, recombinant rat mGluR5 (Rattus norvegicus, UniProt P31424) (assay: Functional calcium flux assay (FLIPR), antagonism of glutamate-evoked [Ca2+]i increase). Details: HEK293 cells stably expressing recombinant rat mGluR5; Fluo-8; 15 min incubation of test compound, then submaximal glutamate.
T1 construct: expressed in transfected cells
T1 sequence (P31424 21-1203): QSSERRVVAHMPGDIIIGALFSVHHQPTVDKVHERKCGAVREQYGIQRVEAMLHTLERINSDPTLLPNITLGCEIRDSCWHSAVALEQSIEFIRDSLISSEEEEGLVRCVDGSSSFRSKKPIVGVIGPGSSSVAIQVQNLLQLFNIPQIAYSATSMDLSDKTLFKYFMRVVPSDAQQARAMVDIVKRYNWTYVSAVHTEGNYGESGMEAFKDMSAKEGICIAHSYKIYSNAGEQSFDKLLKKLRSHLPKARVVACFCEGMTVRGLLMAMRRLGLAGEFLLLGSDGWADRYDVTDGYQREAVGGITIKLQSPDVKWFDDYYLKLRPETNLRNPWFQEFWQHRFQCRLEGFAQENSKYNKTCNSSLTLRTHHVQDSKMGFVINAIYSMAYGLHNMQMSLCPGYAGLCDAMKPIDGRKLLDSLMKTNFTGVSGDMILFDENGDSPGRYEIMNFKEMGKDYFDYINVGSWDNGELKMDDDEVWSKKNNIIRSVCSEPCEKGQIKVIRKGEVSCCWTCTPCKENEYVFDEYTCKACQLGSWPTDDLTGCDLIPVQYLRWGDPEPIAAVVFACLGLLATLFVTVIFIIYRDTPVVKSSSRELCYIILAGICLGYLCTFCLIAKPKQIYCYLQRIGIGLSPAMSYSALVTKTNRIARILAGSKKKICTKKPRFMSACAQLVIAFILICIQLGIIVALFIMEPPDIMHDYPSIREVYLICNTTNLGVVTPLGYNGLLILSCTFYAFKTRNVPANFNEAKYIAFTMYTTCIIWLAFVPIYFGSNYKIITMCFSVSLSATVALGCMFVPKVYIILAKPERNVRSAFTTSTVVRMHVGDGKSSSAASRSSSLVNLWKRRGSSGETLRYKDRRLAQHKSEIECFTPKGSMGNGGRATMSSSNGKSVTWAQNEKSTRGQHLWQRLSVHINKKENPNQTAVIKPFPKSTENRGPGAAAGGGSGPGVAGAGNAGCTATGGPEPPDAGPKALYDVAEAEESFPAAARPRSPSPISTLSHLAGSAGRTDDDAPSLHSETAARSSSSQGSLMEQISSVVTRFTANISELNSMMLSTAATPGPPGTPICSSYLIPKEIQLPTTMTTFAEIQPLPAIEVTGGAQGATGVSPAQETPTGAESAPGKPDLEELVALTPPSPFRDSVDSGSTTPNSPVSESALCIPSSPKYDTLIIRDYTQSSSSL
Assay type: cell-based
Protocol: Functional Calcium Flux Assay Methodology
For functional assays, HEK293 cells stably expressing recombinant rat mGluR5 were seeded in 384-well plates and dye loaded using Fluo-8. Cells were then washed to remove the un-incorporated dye. Antagonist evaluation was performed following a 15 min incubation of the test compound followed by the addition of submaximal concentration of glutamate. Intracellular calcium ([Ca^2+]i) measurements were performed using a fluorometric imaging plate reader (FLIPR, Molecular Devices). The glutamate-evoked increase in [Ca^2+]i in the presence of the test compounds was compared to the response to glutamate alone (the positive control). Antagonist inhibition curves were fitted with a 4-parameter logistic equation giving IC50 values, and Hill coefficients using an iterative nonlinear curve fitting algorithm.
The tables below provide IC50 data in this assay. In the activity column, A=IC50 >1,000 and ≤5,000 nM; B=IC50>500 and ≤1,000 nM and C=IC50≤500 nM.

N#Cc1cc(I)cc(-n2cc(C#Cc3ccccn3)c3ccccc32)c1 [Example Compound 1, 3-iodo-5-(3-(pyridin-2-ylethynyl)-1H-indol-1-yl)benzonitrile] and N#Cc1cc(F)cc(-n2cc(C#Cc3ccccn3)c3ccccc32)c1 [Example Compound 2, 3-fluoro-5-(3-(pyridin-2-ylethynyl)-1H-indol-1-yl)benzonitrile] cannot be ordered by pIC50: at least 6.30 for the first, at least 6.30 for the second.

Fc1ccc(-n2cc(C#Cc3ccccn3)c3ccccc32)cc1 [Example Compound 3, 1-(4-fluorophenyl)-3-(pyridin-2-ylethynyl)-1H-indole] and Fc1ccc(-n2cc(C#Cc3ncccn3)c3ccccc32)cc1 [Example Compound 4, 1-(4-fluorophenyl)-3-(pyrimidin-2-ylethynyl)-1H-indole] cannot be ordered by pIC50: at least 6.30 for the first, at least 6.30 for the second.

N#Cc1cc(F)cc(-n2cc(F)c(C#Cc3ccccn3)c2)c1 [Example Compound 5, 3-fluoro-5-(3-fluoro-4-(pyridin-2-ylethynyl)-1H-pyrrol-1-yl)benzonitrile] and N#Cc1cc(F)cc(-n2ccc(C#Cc3ccccn3)c2)c1 [Example Compound 6, 3-fluoro-5-(3-(pyridin-2-ylethynyl)-1H-pyrrol-1-yl)benzonitrile] cannot be ordered by pIC50: at least 6.30 for the first, at least 6.30 for the second.

First: Fc1ccc(-n2ccc(C#Cc3ccccc3)c2)cc1 [Example Compound 7, 1-(4-fluorophenyl)-3-(phenylethynyl)-1H-pyrrole]
Second: Cc1cc(C#Cc2ccncc2)c(C)n1-c1ccc(OC(F)(F)F)cc1 [Example Compound 10, 4-((2,5-dimethyl-1-(4-(trifluoromethoxy)phenyl)-1H-pyrrol-3-yl)ethynyl)pyridine]
The pIC50 of the first is higher: at least 6.30 for the first, 5.30 to 6.00 for the second.

Cc1cc(C#Cc2ccccn2)c(C)n1-c1ccc(OC(F)(F)F)cc1 [Example Compound 8, 2-((2,5-dimethyl-1-(4-(trifluoromethoxy)phenyl)-1H-pyrrol-3-yl)ethynyl)pyridine] and Cc1cc(C#Cc2ncccn2)c(C)n1-c1ccc(OC(F)(F)F)cc1 [Example Compound 9, 2-((2,5-dimethyl-1-(4-(trifluoromethoxy)phenyl)-1H-pyrrol-3-yl)ethynyl)pyrimidine] cannot be ordered by pIC50: at least 6.30 for the first, at least 6.30 for the second.
